Reference: PMC7525662, “Preclinical dosimetry models and the prediction of clinical doses of novel positron emission tomography radiotracers” (Scientific Reports, 2020)
Marks after values point to notes of the source that are not given here.

Experiments:
Design in all cases: species or system Sprague–Dawley rats
[1] = Residence times in rat source organs from whole-body PET, FBP reconstruction; settings: in vivo, iv
Procedure: Immediately after radiotracer administration, a 240 min emission scan using 4 beds (50% overlap) was obtained using 3-dimensional 1:5 mode and re-binned as follows: 7 × 1 min, 2 × 5 min and 4 × 10 min. Throughout the PET/CT scanning session, animal temperature and respiration rate were monitored and controlled. PET studies were reconstructed using filtered-back projection (FBP) and Mediso’s iterative Tera-Tomo 3D reconstruction algorithm with the following settings: 4 iterations, 6 subsets, full detector model, normal regularization, spike filter on, voxel size 0.4 mm and 400‒600 keV energy window. PET data were corrected for randoms, scatter and attenuation. […] Then, PMOD’s contours interpolation tool was used to interpolate ROIs for each organ into a corresponding volume-of-interest (VOI). A static cuboidal VOI was also drawn to include the animal whole-body. Time-activity curves for each source organ, whole-body and remainder of the body were plotted. […] Residence times (τ) were determined for each radiotracer in source organs, whole-body and remaining (any activity assigned to the whole-body but not assigned to a source organ). Each preclinical source organ’s τ was determined by calculating the area under its respective time-activity curve (activity normalised to the percentage maximum injected dose as a function of time) using the trapezoid method. […] From each individual animal, eight dosimetry models were constructed from all possible combinations of image reconstruction method (FBP or iterative), τ (non-normalised or normalised to human organ masses), and sex of phantom (male or female).

[2] = OLINDA/EXM predicted clinical doses: adult female phantom, normalised τ, FBP; settings: rat, in vivo
Procedure: (§1) PET studies were reconstructed using filtered-back projection (FBP) and Mediso’s iterative Tera-Tomo 3D reconstruction algorithm with the following settings: 4 iterations, 6 subsets, full detector model, normal regularization, spike filter on, voxel size 0.4 mm and 400‒600 keV energy window. PET data were corrected for randoms, scatter and attenuation. Time-activity curves for each source organ, whole-body and remainder of the body were plotted. […] Residence times (τ) were determined for each radiotracer in source organs, whole-body and remaining (any activity assigned to the whole-body but not assigned to a source organ). Each preclinical source organ’s τ was determined by calculating the area under its respective time-activity curve (activity normalised to the percentage maximum injected dose as a function of time) using the trapezoid method. […] From each individual animal, eight dosimetry models were constructed from all possible combinations of image reconstruction method (FBP or iterative), τ (non-normalised or normalised to human organ masses), and sex of phantom (male or female). Supplementary table 8. Predicted clinical absorbed organ doses and whole-body effective doses of PET radiotracers using normalised adult female source organ residence times from filtered backprojection reconstructions.

[3] = OLINDA/EXM predicted clinical doses: adult female phantom, non-normalised τ, iterative; settings: rat, in vivo
Procedure: as §1, with “table 10.” for “table 8.”, “using non-normalised (preclinical)” for “using normalised”, “from iterative” for “from filtered backprojection”

NOTA-RGDfK [existing Al^18F-labelled NOTA-RGDfK peptide PET radiotracer; precursor NOTA-RGDfK (1)]
Residence Time (h), Average: Brain [1]: 0.00193 h | Residence Time (h), Average: Heart [1]: 0.00279 h | Residence Time (h), Average: Intestine [1]: 0.209 h | Residence Time (h), Average: Kidneys [1]: 0.029 h | Residence Time (h), Average: Liver [1]: 0.0207 h | Residence Time (h), Average: Lungs [1]: 0.00664 h | Residence Time (h), Average: Remaining [1]: 1.96 h | Residence Time (h), Average: Urinary Bladder [1]: 0.892 h | Effective Dose (mSv/MBq), Average ± SD [2]: 2.71E-02 mSv/MBq | Estimated Absorbed Dose of Organ, Average: Adrenals [2]: 1.41E-02 mGy/MBq | Estimated Absorbed Dose of Organ, Average: Brain [2]: 4.10E-03 mGy/MBq | Estimated Absorbed Dose of Organ, Average: Breasts [2]: 1.02E-02 mGy/MBq | Estimated Absorbed Dose of Organ, Average: Gallbladder Wall [2]: 1.36E-02 mGy/MBq | Estimated Absorbed Dose of Organ, Average: Heart Wall [2]: 1.39E-02 mGy/MBq | Estimated Absorbed Dose of Organ, Average: Kidneys [2]: 1.95E-02 § mGy/MBq | Estimated Absorbed Dose of Organ, Average: LLI Wall [2]: 6.76E-02 ‡ mGy/MBq | Estimated Absorbed Dose of Organ, Average: Liver [2]: 8.65E-03 mGy/MBq | Estimated Absorbed Dose of Organ, Average: Lungs [2]: 1.10E-02 mGy/MBq | Estimated Absorbed Dose of Organ, Average: Muscle [2]: 1.29E-02 mGy/MBq | Estimated Absorbed Dose of Organ, Average: Osteogenic Cells [2]: 2.00E-02 mGy/MBq | Estimated Absorbed Dose of Organ, Average: Ovaries [2]: 2.14E-02 mGy/MBq | Estimated Absorbed Dose of Organ, Average: Pancreas [2]: 1.47E-02 mGy/MBq | Estimated Absorbed Dose of Organ, Average: Red Marrow [2]: 1.23E-02 mGy/MBq | Estimated Absorbed Dose of Organ, Average: Skin [2]: 9.76E-03 mGy/MBq | Estimated Absorbed Dose of Organ, Average: Small Intestine [2]: 1.64E-02 mGy/MBq | Estimated Absorbed Dose of Organ, Average: Spleen [2]: 1.38E-02 mGy/MBq | Estimated Absorbed Dose of Organ, Average: Stomach Wall [2]: 1.41E-02 mGy/MBq | Estimated Absorbed Dose of Organ, Average: Thymus [2]: 1.28E-02 mGy/MBq | Estimated Absorbed Dose of Organ, Average: Thyroid [2]: 1.16E-02 mGy/MBq | Estimated Absorbed Dose of Organ, Average: Total Body [2]: 1.31E-02 mGy/MBq | Estimated Absorbed Dose of Organ, Average: ULI Wall [2]: 1.62E-02 mGy/MBq | Estimated Absorbed Dose of Organ, Average: Urinary Bladder Wall [2]: 1.54E-01 † mGy/MBq | Estimated Absorbed Dose of Organ, Average: Uterus [2]: 2.28E-02 mGy/MBq | Effective Dose [3]: 8.22E-02 mSv/MBq | Estimated Absorbed Dose of Organ, Adrenals [3]: 9.77E-03 mGy/MBq | Estimated Absorbed Dose of Organ, Brain [3]: 1.87E-03 mGy/MBq | Estimated Absorbed Dose of Organ, Breasts [3]: 5.49E-03 mGy/MBq | Estimated Absorbed Dose of Organ, Gallbladder Wall [3]: 1.07E-02 mGy/MBq | Estimated Absorbed Dose of Organ, Heart Wall [3]: 7.79E-03 mGy/MBq | Estimated Absorbed Dose of Organ, Kidneys [3]: 4.85E-02§ mGy/MBq | Estimated Absorbed Dose of Organ, LLI Wall [3]: 1.68E-01 ‡ mGy/MBq | Estimated Absorbed Dose of Organ, Liver [3]: 1.06E-02 mGy/MBq | Estimated Absorbed Dose of Organ, Lungs [3]: 5.19E-03 mGy/MBq | Estimated Absorbed Dose of Organ, Muscle [3]: 1.30E-02 mGy/MBq | Estimated Absorbed Dose of Organ, Osteogenic Cells [3]: 1.30E-02 mGy/MBq | Estimated Absorbed Dose of Organ, Ovaries [3]: 4.12E-02 mGy/MBq | Estimated Absorbed Dose of Organ, Pancreas [3]: 9.72E-03 mGy/MBq | Estimated Absorbed Dose of Organ, Red Marrow [3]: 1.18E-02 mGy/MBq | Estimated Absorbed Dose of Organ, Skin [3]: 7.18E-03 mGy/MBq | Estimated Absorbed Dose of Organ, Small Intestine [3]: 2.22E-02 mGy/MBq | Estimated Absorbed Dose of Organ, Spleen [3]: 9.42E-03 mGy/MBq | Estimated Absorbed Dose of Organ, Stomach Wall [3]: 9.44E-03 mGy/MBq | Estimated Absorbed Dose of Organ, Thymus [3]: 6.68E-03 mGy/MBq | Estimated Absorbed Dose of Organ, Thyroid [3]: 5.90E-03 mGy/MBq | Estimated Absorbed Dose of Organ, ULI Wall [3]: 1.78E-02 mGy/MBq | Estimated Absorbed Dose of Organ, Urinary Bladder Wall [3]: 9.66E-01 † mGy/MBq | Estimated Absorbed Dose of Organ, Uterus [3]: 6.04E-02 mGy/MBq | Estimated Absorbed Dose, Total Body [3]: 1.33E-02 mGy/MBq

O=C[C@H]([18F])[C@@H](O)[C@H](O)[C@H](O)CO [FDG, 2-deoxy-2-[^18F]fluoro-D-glucose]
Residence Time (h), Average: Brain [1]: 0.0124 h | Residence Time (h), Average: Heart [1]: 0.0158 h | Residence Time (h), Average: Intestine [1]: 0.372 h | Residence Time (h), Average: Kidneys [1]: 0.0215 h | Residence Time (h), Average: Liver [1]: 0.0249 h | Residence Time (h), Average: Lungs [1]: 0.0155 h | Residence Time (h), Average: Remaining [1]: 2.1 h | Residence Time (h), Average: Urinary Bladder [1]: 0.65 h | Effective Dose (mSv/MBq), Average ± SD [2]: 3.21E-02 mSv/MBq | Estimated Absorbed Dose of Organ, Average: Adrenals [2]: 1.55E-02 mGy/MBq | Estimated Absorbed Dose of Organ, Average: Brain [2]: 1.10E-02 mGy/MBq | Estimated Absorbed Dose of Organ, Average: Breasts [2]: 1.16E-02 mGy/MBq | Estimated Absorbed Dose of Organ, Average: Gallbladder Wall [2]: 1.48E-02 mGy/MBq | Estimated Absorbed Dose of Organ, Average: Heart Wall [2]: 4.52E-02 mGy/MBq | Estimated Absorbed Dose of Organ, Average: Kidneys [2]: 1.70E-02 § mGy/MBq | Estimated Absorbed Dose of Organ, Average: LLI Wall [2]: 1.07E-01 † mGy/MBq | Estimated Absorbed Dose of Organ, Average: Liver [2]: 1.01E-02 mGy/MBq | Estimated Absorbed Dose of Organ, Average: Lungs [2]: 1.82E-02 mGy/MBq | Estimated Absorbed Dose of Organ, Average: Muscle [2]: 1.40E-02 mGy/MBq | Estimated Absorbed Dose of Organ, Average: Osteogenic Cells [2]: 2.19E-02 mGy/MBq | Estimated Absorbed Dose of Organ, Average: Ovaries [2]: 2.42E-02 mGy/MBq | Estimated Absorbed Dose of Organ, Average: Pancreas [2]: 1.63E-02 mGy/MBq | Estimated Absorbed Dose of Organ, Average: Red Marrow [2]: 1.37E-02 mGy/MBq | Estimated Absorbed Dose of Organ, Average: Skin [2]: 1.06E-02 mGy/MBq | Estimated Absorbed Dose of Organ, Average: Small Intestine [2]: 1.83E-02 mGy/MBq | Estimated Absorbed Dose of Organ, Average: Spleen [2]: 1.51E-02 mGy/MBq | Estimated Absorbed Dose of Organ, Average: Stomach Wall [2]: 1.57E-02 mGy/MBq | Estimated Absorbed Dose of Organ, Average: Thymus [2]: 1.48E-02 mGy/MBq | Estimated Absorbed Dose of Organ, Average: Thyroid [2]: 1.27E-02 mGy/MBq | Estimated Absorbed Dose of Organ, Average: Total Body [2]: 1.46E-02 mGy/MBq | Estimated Absorbed Dose of Organ, Average: ULI Wall [2]: 1.75E-02 mGy/MBq | Estimated Absorbed Dose of Organ, Average: Urinary Bladder Wall [2]: 1.18E-01 ‡ mGy/MBq | Estimated Absorbed Dose of Organ, Average: Uterus [2]: 2.28E-02 mGy/MBq | Effective Dose [3]: 7.95E-02 mSv/MBq | Estimated Absorbed Dose of Organ, Adrenals [3]: 1.20E-02 mGy/MBq | Estimated Absorbed Dose of Organ, Brain [3]: 6.80E-03 mGy/MBq | Estimated Absorbed Dose of Organ, Breasts [3]: 7.63E-03 mGy/MBq | Estimated Absorbed Dose of Organ, Gallbladder Wall [3]: 1.27E-02 mGy/MBq | Estimated Absorbed Dose of Organ, Heart Wall [3]: 3.36E-02 mGy/MBq | Estimated Absorbed Dose of Organ, Kidneys [3]: 3.95E-02 mGy/MBq | Estimated Absorbed Dose of Organ, LLI Wall [3]: 2.13E-01 ‡ mGy/MBq | Estimated Absorbed Dose of Organ, Liver [3]: 1.20E-02 mGy/MBq | Estimated Absorbed Dose of Organ, Lungs [3]: 8.85E-03 mGy/MBq | Estimated Absorbed Dose of Organ, Muscle [3]: 1.42E-02 mGy/MBq | Estimated Absorbed Dose of Organ, Osteogenic Cells [3]: 1.64E-02 mGy/MBq | Estimated Absorbed Dose of Organ, Ovaries [3]: 4.21E-02 mGy/MBq | Estimated Absorbed Dose of Organ, Pancreas [3]: 1.23E-02 mGy/MBq | Estimated Absorbed Dose of Organ, Red Marrow [3]: 1.35E-02 mGy/MBq | Estimated Absorbed Dose of Organ, Skin [3]: 8.59E-03 mGy/MBq | Estimated Absorbed Dose of Organ, Small Intestine [3]: 2.39E-02 mGy/MBq | Estimated Absorbed Dose of Organ, Spleen [3]: 1.16E-02 mGy/MBq | Estimated Absorbed Dose of Organ, Stomach Wall [3]: 1.21E-02 mGy/MBq | Estimated Absorbed Dose of Organ, Thymus [3]: 9.63E-03 mGy/MBq | Estimated Absorbed Dose of Organ, Thyroid [3]: 8.07E-03 mGy/MBq | Estimated Absorbed Dose of Organ, ULI Wall [3]: 1.93E-02 mGy/MBq | Estimated Absorbed Dose of Organ, Urinary Bladder Wall [3]: 7.75E-01 † mGy/MBq | Estimated Absorbed Dose of Organ, Uterus [3]: 5.40E-02 § mGy/MBq | Estimated Absorbed Dose, Total Body [3]: 1.49E-02 mGy/MBq
